Assay results as given in patent publication US20050074404A1, “Methods for avoiding renal injury” (Pfizer Inc., priority 2002, published 2005).

Tests used:
rat kidney [1] = assay: Histopathology of rat kidney (H & E); type: in vivo
Text: (§1) The physiological events that characterize the onset of phospholipidosis are well known to those with skill in the art (see, for example, Girton (2002)). […] Following endocytosis, the aminoglycoside accumulates in lysosomes. The lysosomes eventually swell with excess lipid debris. When visualized using electron-microscopy, the accumulated lipid appear as phospholipid inclusions, or myelin figures, within the lysosomes (Kosek et al. (1974)) (see FIG. 1 and FIG. 2 below). The phospholipid inclusions may also be visualized by staining with Sudan black as described, for example, in Presnell and Schreibman (1997) (see FIG. 3 below). The damage to renal tissue from phospholipidosis may be visualized by histological examination using hematoxylin and eosin staining (H & E) of the renal tissue damaged through phospholipidosis. The damage that is evident includes tubular degeneration, vacuolation and eventually, in advanced stages of damage, necrosis of the renal proximal tubule (see FIG. 5 and FIG. 6 below).
(§2) Male Sprague Dawley rats (105-125 grams each) were purchased from Charles River (Kingston, N.Y.). […] Rats were dosed intramuscular, using a 25 gauge tuberculin syringe. The animals were housed individually prior to urine collection. For the urine collection, rats were transferred to individual metabolism cages. At all times throughout the study, the animals had free access to food and water. […] Rats were dosed once per day for the duration of 1, 4 or 9 days. Urine was collected after one dose, four doses and nine doses. Each collection period was for 24 hours. Urine was collected, chilled to approximately 4° C. and protected from light. Total urine volume was measured at the end of each collection period prior to retinol analysis. The urine was stored at −80° C. and in darkness to protect the components of the urine from oxidation and degration until analysis.

[2] = Urinary albumin concentrations in rats; type: in vivo, rat; settings: 100 mg/kg once per day
Description: as §2

rat proximal tubule = assay: Electron microscopy of rat proximal tubule; type: in vivo; settings: four days of treatment with 100 mg/kg
Text: as §1
Male Sprague Dawley rats (105-125 grams each) were purchased from Charles River (Kingston, N.Y.). […] Rats were dosed intramuscular, using a 25 gauge tuberculin syringe. The animals were housed individually prior to urine collection. […] Total urine volume was measured at the end of each collection period prior to retinol analysis. […]

rat kidney [3] = assay: Sudan black staining of rat kidney for phospholipids; type: in vivo
Text: as §1, §2

[4] = Urinary retinol concentrations in rats (HPLC); type: in vivo, rat; settings: 100 mg/kg intramuscular once per day, 24 h urine
Description: A. Dosing of Mammals, Collection and Storage of Urine
as §2
B. Measurement of Retinol in Urine Samples
The acetonitrile, methanol, isopropanol and tetrahydrofuran (THF) were purchased from J. T. Baker (Phillipsburg, N.J.). The acetonitrile and methanol were HPLC grade and the isopropanol and THF were ACS reagent grade. The water in the mobile phase came from a Nanopure® water filtration system (Barnstead, Dubuque, Ind.). Retinol and retinol acetate standards were purchased from ICN Biomedicals (Costa Mesa, Calif.). The retinol palmitate was purchased from Sigma Chemicals (St. Louis, Mo.).
The HPLC instrumentation consisted of a Hewlett-Packard Model 1090 Series II system (Hewlett Packard Company, Palo Alto, Calif.) equipped with a tertiary gradient pump, diode array detector, and a cooled auto-sampler. Hewlett-Packard Chemstation™ software (Rev. 5.02) was used for data collection and analysis. Absorbance data for all retinols was collected at a wavelength of 340 nm. All separations were carried out on a 15 cm×2.0 mm, 5μ particle size, Prodigy ODS (2) HPLC column (Phenomenex, Torrance, Calif.). The column was equipped with an inlet filter, 0.5μ×1.5 mm (Phenomenex, Torrance, Calif.). […]

Gentamicin sulfate
Histopathologic effects, onset (rat kidney [1]; 100 mg/kg once per day): do not begin to appear until day four
Chronic Progressive Nephropathy, slight, number of animals (rat kidney [1]; 100 mg/kg, Day 1, of 8 rats): 1
Hyaline droplets, slight, number of animals (rat kidney [1]; 100 mg/kg, Day 1, of 8 rats): 3
No significant findings, number of animals (rat kidney [1]; 100 mg/kg, Day 1, of 8 rats): 4
Chronic Progressive Nephropathy, slight, number of animals (rat kidney [1]; 100 mg/kg, Day 4, of 8 rats): 2
Hyaline droplets, mild, number of animals (rat kidney [1]; 100 mg/kg, Day 4, of 8 rats): 1
Hyaline droplets, slight, number of animals (rat kidney [1]; 100 mg/kg, Day 4, of 8 rats): 3
Tubular degeneration (1), mild, number of animals (rat kidney [1]; 100 mg/kg, Day 4, of 8 rats): 2
Tubular degeneration (1), slight, number of animals (rat kidney [1]; 100 mg/kg, Day 4, of 8 rats): 6
Tubular vacuolation, mild, number of animals (rat kidney [1]; 100 mg/kg, Day 4, of 8 rats): 3
Tubular vacuolation, slight, number of animals (rat kidney [1]; 100 mg/kg, Day 4, of 8 rats): 3
Hyaline droplets, mild, number of animals (rat kidney [1]; 100 mg/kg, Day 9, of 8 rats): 4
Hyaline droplets, slight, number of animals (rat kidney [1]; 100 mg/kg, Day 9, of 8 rats): 1
Tubular degeneration/necrosis/regeneration (3), marked, number of animals (rat kidney [1]; 100 mg/kg, Day 9, of 8 rats): 6
Tubular degeneration/necrosis/regeneration (3), severe, number of animals (rat kidney [1]; 100 mg/kg, Day 9, of 8 rats): 2
Tubular vacuolation, mild, number of animals (rat kidney [1]; 100 mg/kg, Day 9, of 8 rats): 2
Tubular vacuolation, moderate, number of animals (rat kidney [1]; 100 mg/kg, Day 9, of 8 rats): 4
Tubular vacuolation, slight, number of animals (rat kidney [1]; 100 mg/kg, Day 9, of 8 rats): 1
Rat kidney tissue histology (FIG. 5) (rat kidney [1]; four days of treatment with 100 mg/kg): early lesions formation
Rat kidney tissue histology (FIG. 6) (rat kidney [1]; nine days of treatment with 100 mg/kg): extensive kidney tissue damage
Urinary albumin concentration ([2]; Day 1, mean of eight rats): 163 µg/mL
Urinary albumin concentration ([2]; Day 4, mean of eight rats): 354 µg/mL
Urinary albumin concentration ([2]; Day 9, mean of eight rats): 1184 µg/mL
Electron-micrograph finding in rat proximal tubule (FIG. 1) (rat proximal tubule): phospholipid inclusions or myelin figures
Significant Sudan black staining, onset (rat kidney [3]; 100 mg/kg once per day): not observed until day four
Sudan black staining negative, number of animals (rat kidney [3]; 100 mg/kg, Day 1, of 8 rats): 3
Sudan black staining slight, number of animals (rat kidney [3]; 100 mg/kg, Day 1, of 8 rats): 5
Sudan black staining mild, number of animals (rat kidney [3]; 100 mg/kg, Day 4, of 8 rats): 1
Sudan black staining mild-moderate, number of animals (rat kidney [3]; 100 mg/kg, Day 4, of 8 rats): 2
Sudan black staining moderate, number of animals (rat kidney [3]; 100 mg/kg, Day 4, of 8 rats): 2
Sudan black staining moderate-marked, number of animals (rat kidney [3]; 100 mg/kg, Day 4, of 8 rats): 3
Sudan black staining marked, number of animals (rat kidney [3]; 100 mg/kg, Day 9, of 8 rats): 1
Sudan black staining mild, number of animals (rat kidney [3]; 100 mg/kg, Day 9, of 8 rats): 1
Sudan black staining mild-moderate, number of animals (rat kidney [3]; 100 mg/kg, Day 9, of 8 rats): 1
Sudan black staining moderate, number of animals (rat kidney [3]; 100 mg/kg, Day 9, of 8 rats): 2
Sudan black staining moderate-marked, number of animals (rat kidney [3]; 100 mg/kg, Day 9, of 8 rats): 3
Sudan black staining (rat kidney [3]; after a single dose (100 mg/kg)): slight staining
Urinary retinol concentration ([4]; Day 1, mean of eight rats): 123.57 nM
Urinary retinol concentration ([4]; Day 4, mean of eight rats): 131.08 nM
Urinary retinol concentration ([4]; Day 9, mean of eight rats): 2457.13 nM
